US10258603B2 (priority 2014, dated 2019)
Where two headings read alike, the source gives them in different places.

Molecular target: T1, CECR2 (Homo sapiens, UniProt Q9BXF3)
T1 construct: 424-538 was cloned, expressed, and purified to homogeneity; Flag; made in house
Assay: CECR2 TR-FRET Binding Assay
Source text: IC50 Measurements for Inhibitors Using CECR2 TR-FRET Binding Assay

T1 sequence (Q9BXF3 424-538 limits assumed): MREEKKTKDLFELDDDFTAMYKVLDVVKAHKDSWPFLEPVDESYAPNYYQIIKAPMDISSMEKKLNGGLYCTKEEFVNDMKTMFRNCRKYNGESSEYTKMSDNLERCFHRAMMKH

Row | SMILES | IC50 (read-out: IC50) [µM] | IC50 (IC50 (uM)) [µM]
1 | CC(C)N1CC[C@@H](NC(=O)c2cn(C)c(=O)c3[nH]ccc23)[C@H](C)C1 (relative stereo) [Example 239] | 2.3 | –
2 | C=CCn1cc(C(=O)N2CCN(c3ccc(F)cc3)CC2C(N)=O)c2cc(C)[nH]c2c1=O (single isomer, unassigned) [Example 273, 1-(6-allyl-2-methyl-7-oxo-6,7-dihydro-1H-pyrrolo[2,3-c]pyridine-4-carbonyl)-4-(4-fluorophenyl)piperazine-2-carboxamide] | 4.9 | –
3 | C=CCn1cc(C(=O)N2CCN(c3ccc(F)cc3)CC2C(N)=O)c2cc(C)[nH]c2c1=O (single isomer, unassigned) [Example 274, 1-(6-allyl-2-methyl-7-oxo-6,7-dihydro-1H-pyrrolo[2,3-c]pyridine-4-carbonyl)-4-(4-fluorophenyl)piperazine-2-carboxamide] | 0.074 | –
4 | C=CCn1cc(C(=O)N(C)C2CCC(C)(C)c3ccccc32)c2cc(C)[nH]c2c1=O (single isomer, unassigned) [Example 279] | 0.012 | –
5 | C=CCn1cc(C(=O)N(C)C2CCC(C)(C)c3ccccc32)c2cc(C)[nH]c2c1=O (single isomer, unassigned) [Example 280] | 0.049 | –
6 | C=CCn1cc(C(=O)N(C)C2CCCc3cc(OC)ccc32)c2cc(C)[nH]c2c1=O (single isomer, unassigned) [Example 281] | 0.032 | –
7 | C=CCn1cc(C(=O)N(C)C2CCCc3cc(OC)ccc32)c2cc(C)[nH]c2c1=O (single isomer, unassigned) [Example 282] | 0.067 | –
8 | C=CCn1cc(C(=O)N(C)C2CCCc3c(F)cccc32)c2cc(C)[nH]c2c1=O (single isomer, unassigned) [Example 286] | 0.041 | –
9 | C=CCn1cc(C(=O)N(C)C2CCCc3ccc(C)cc32)c2cc(C)[nH]c2c1=O (single isomer, unassigned) [Example 287] | 0.084 | –
10 | C=CCn1cc(C(=O)N(C)C2CCCc3c(OC)cccc32)c2cc(C)[nH]c2c1=O (single isomer, unassigned) [Example 288] | 0.041 | –
11 | C=CCn1cc(C(=O)N(C)C2CCCc3c(OC)cccc32)c2cc(C)[nH]c2c1=O (single isomer, unassigned) [Example 289] | 0.045 | –
12 | C=CCn1cc(C(=O)N(C)C2CCCc3ccncc32)c2cc(C)[nH]c2c1=O (single isomer, unassigned) [Example 290] | 0.05 | –
13 | C=CCn1cc(C(=O)N(C)C2CCCc3ccncc32)c2cc(C)[nH]c2c1=O (single isomer, unassigned) [Example 291] | 0.14 | –
14 | CC(CN(C)C)NC(=O)c1cn(C)c(=O)c2[nH]ccc12 (centres unmarked) [Example 2, N-[2-(dimethylamino)-1-methyl-ethyl]-6-methyl-7-oxo-1H-pyrrolo[2,3-c]pyridine-4-carboxamide] | 14 | –
15 | CN(C)C1CCC(NC(=O)c2cn(C)c(=O)c3[nH]ccc23)CC1 (centres unmarked) [Example 21, N-[4-(dimethylamino)cyclohexyl]-6-methyl-7-oxo-1H-pyrrolo[2,3-c]pyridine-4-carboxamide] | 0.89 | –
16 | CC(C)N1CCC(CN(C)C(=O)c2cn(C)c(=O)c3[nH]ccc23)C1 (centres unmarked) [Example 23, N-[(1-isopropylpyrrolidin-3-yl)methyl]-N,6-dimethyl-7-oxo-1H-pyrrolo[2,3-c]pyridine-4-carboxamide] | 2.1 | –
17 | CC1CCN(CCNC(=O)c2cn(C)c(=O)c3[nH]ccc23)CC1 [Example 26, 6-methyl-N-[2-(4-methyl-1-piperidyl)ethyl]-7-oxo-1H-pyrrolo[2,3-c]pyridine-4-carboxamide] | 3.2 | –
18 | CC1CCCCN1CCCNC(=O)c1cn(C)c(=O)c2[nH]ccc12 (centres unmarked) [Example 29, 6-methyl-N-[3-(2-methyl-1-piperidyl)propyl]-7-oxo-1H-pyrrolo[2,3-c]pyridine-4-carboxamide] | 1.8 | –
19 | Cn1cc(C(=O)NCCN2CCC(O)CC2)c2cc[nH]c2c1=O [Example 30, N-[2-(4-hydroxy-1-piperidyl)ethyl]-6-methyl-7-oxo-1H-pyrrolo[2,3-c]pyridine-4-carboxamide] | 3.8 | –
20 | Cn1cc(C(=O)NCCN2CCS(=O)(=O)CC2)c2cc[nH]c2c1=O [Example 37, N-[2-(1,1-dioxo-1,4-thiazinan-4-yl)ethyl]-6-methyl-7-oxo-1H-pyrrolo[2,3-c]pyridine-4-carboxamide] | 3.1 | –
21 | CC(C)N1CCC(N(C)C(=O)c2cn(C)c(=O)c3[nH]ccc23)CC1 [Example 41, N-(1-isopropyl-4-piperidyl)-N,6-dimethyl-7-oxo-1H-pyrrolo[2,3-c]pyridine-4-carboxamide] | – | 0.77
22 | Cn1cc(C(=O)N2CCC(N3CCCCC3)CC2)c2cc[nH]c2c1=O [Example 59, 6-methyl-4-[4-(1-piperidyl)piperidine-1-carbonyl]-1H-pyrrolo[2,3-c]pyridin-7-one] | 0.89 | –

Row | SMILES | IC50 (read-out: IC50) [µM] | IC50 (IC50 (uM)) [µM]
23 | CN(C)C1CCN(C(=O)c2cn(C)c(=O)c3[nH]ccc23)C1 (centres unmarked) [Example 60, 4-[3-(dimethylamino)pyrrolidine-1-carbonyl]-6-methyl-1H-pyrrolo[2,3-c]pyridin-7-one] | 10.3 | –
24 | CN1CCN(C2CCN(C(=O)c3cn(C)c(=O)c4[nH]ccc34)CC2)CC1 [Example 61, 6-methyl-4-[4-(4-methylpiperazin-1-yl)piperidine-1-carbonyl]-1H-pyrrolo[2,3-c]pyridin-7-one] | 1 | –
25 | CC1CCN(C2CCN(C(=O)c3cn(C)c(=O)c4[nH]ccc34)CC2)CC1 [Example 62, 6-methyl-4-[4-(4-methyl-1-piperidyl)piperidine-1-carbonyl]-1H-pyrrolo[2,3-c]pyridin-7-one] | 1.5 | –
26 | CC1CCN(C(=O)c2cn(C)c(=O)c3[nH]ccc23)CC1 [Example 65, 6-methyl-4-(4-methylpiperidine-1-carbonyl)-1H-pyrrolo[2,3-c]pyridin-7-one] | 1.4 | –
27 | COC1CCN(C(=O)c2cn(C)c(=O)c3[nH]ccc23)CC1 [Example 66, 4-(4-methoxypiperidine-1-carbonyl)-6-methyl-1H-pyrrolo[2,3-c]pyridin-7-one] | 2.4 | –
28 | CC1CCCN(C2CCN(C(=O)c3cn(C)c(=O)c4[nH]ccc34)CC2)C1 (centres unmarked) [Example 67, 6-methyl-4-[4-(3-methyl-1-piperidyl)piperidine-1-carbonyl]-1H-pyrrolo[2,3-c]pyridin-7-one] | 1.8 | –
29 | Cn1cc(C(=O)N2CCC(C(C)(C)O)CC2)c2cc[nH]c2c1=O [Example 68, 4-[4-(1-hydroxy-1-methyl-ethyl)piperidine-1-carbonyl]-6-methyl-1H-pyrrolo[2,3-c]pyridin-7-one] | 3 | –
30 | Cn1cc(C(=O)N2CCC(Cc3ccc(F)cc3)CC2)c2cc[nH]c2c1=O [Example 69, 4-[4-[(4-fluorophenyl)methyl]piperidine-1-carbonyl]-6-methyl-1H-pyrrolo[2,3-c]pyridin-7-one] | 0.45 | –
31 | COCC1CCN(C(=O)c2cn(C)c(=O)c3[nH]ccc23)CC1 [Example 72, 4-[4-(methoxymethyl)piperidine-1-carbonyl]-6-methyl-1H-pyrrolo[2,3-c]pyridin-7-one] | 2.2 | –
32 | Cn1cc(C(=O)N2CCC3(CC2)COC3)c2cc[nH]c2c1=O [Example 73, 6-methyl-4-(2-oxa-7-azaspiro[3.5]nonane-7-carbonyl)-1H-pyrrolo[2,3-c]pyridin-7-one] | 2.5 | –
33 | CN(C)C(=O)C1CCN(C(=O)c2cn(C)c(=O)c3[nH]ccc23)CC1 [Example 74, N,N-dimethyl-1-(6-methyl-7-oxo-1H-pyrrolo[2,3-c]pyridine-4-carbonyl)piperidine-4-carboxamide] | 5.9 | –
34 | Cn1cc(C(=O)N2CCC(CO)CC2)c2cc[nH]c2c1=O [Example 75, 4-[4-(hydroxymethyl)piperidine-1-carbonyl]-6-methyl-1H-pyrrolo[2,3-c]pyridin-7-one] | 4.8 | –
35 | Cn1cc(C(=O)N2CCC(CCc3ccncc3)CC2)c2cc[nH]c2c1=O [Example 76, 6-methyl-4-[4-[2-(4-pyridyl)ethyl]piperidine-1-carbonyl]-1H-pyrrolo[2,3-c]pyridin-7-one] | 0.35 | –
36 | Cn1cc(C(=O)N2CCC(N3CCCC3)CC2)c2cc[nH]c2c1=O [Example 77, 6-methyl-4-(4-pyrrolidin-1-ylpiperidine-1-carbonyl)-1H-pyrrolo[2,3-c]pyridin-7-one] | 2.7 | –
37 | CC1CN(C(=O)c2cn(C)c(=O)c3[nH]ccc23)CCC1N(C)C (centres unmarked) [Example 78, 4-[4-(dimethylamino)-3-methyl-piperidine-1-carbonyl]-6-methyl-1H-pyrrolo[2,3-c]pyridin-7-one] | 9.9 | –
38 | CCN(CC)C1CCN(C(=O)c2cn(C)c(=O)c3[nH]ccc23)CC1 [Example 79, 4-[4-(diethylamino)piperidine-1-carbonyl]-6-methyl-1H-pyrrolo[2,3-c]pyridin-7-one] | 5.1 | –
39 | Cc1cccc(NC(=O)c2cn(C)c(=O)c3[nH]ccc23)c1 [Example 80, 6-methyl-N-(m-tolyl)-7-oxo-1H-pyrrolo[2,3-c]pyridine-4-carboxamide] | 0.51 | –
40 | Cn1cc(C(=O)Nc2cccc(CN3CCOCC3)c2)c2cc[nH]c2c1=O [Example 113] | 0.31 | –
41 | CN(C(=O)c1cn(C)c(=O)c2[nH]ccc12)C1CCN(c2ccncn2)CC1 [Example 139, N,6-dimethyl-7-oxo-N-(1-pyrimidin-4-yl-4-piperidyl)-1H-pyrrolo[2,3-c]pyridine-4-carboxamide] | 0.24 | –
42 | Cc1cnc(N2CCC(N(C)C(=O)c3cn(C)c(=O)c4[nH]ccc34)CC2)nc1 [Example 140, N,6-dimethyl-N-[1-(5-methylpyrimidin-2-yl)-4-piperidyl]-7-oxo-1H-pyrrolo[2,3-c]pyridine-4-carboxamide] | 0.34 | –
43 | CN(C(=O)c1cn(C)c(=O)c2[nH]ccc12)C1CCN(c2ncc(C#N)cn2)CC1 [Example 141, N-[1-(5-cyanopyrimidin-2-yl)-4-piperidyl]-N,6-dimethyl-7-oxo-1H-pyrrolo[2,3-c]pyridine-4-carboxamide] | 0.39 | –
44 | CN(C(=O)c1cn(C)c(=O)c2[nH]ccc12)C1CCN(c2nccc(C(F)(F)F)n2)CC1 [Example 142, N,6-dimethyl-7-oxo-N-[1-[4-(trifluoromethyl)pyrimidin-2-yl]-4-piperidyl]-1H-pyrrolo[2,3-c]pyridine-4-carboxamide] | 0.29 | –
